Measured values taken from ChEMBL document CHEMBL4196212, “Targeting Cytochrome P450 (CYP) 1B1 Enzyme with Four Series of A-Ring Substituted Estrane Derivatives: Design, Synthesis, Inhibitory Activity, and Selectivity” (J Med Chem, 2018).

How the values were obtained:
CYP1B1 [1] = biological target: T1, CYP1B1 (Homo sapiens, UniProt Q16678); assay: Inhibition of recombinant human CYP1B1 at 0.3 uM incubated for 45 mins using 7-ethyl-O-resorufin substrate in presence of NADPH regenerating system by fluorescence based ethoxyresorufin-O-deethylase assay; settings: recombinant human CYP1B1, probe 7-ethyl-O-resorufin (7-ethoxyresorufin)
T1 sequence (Q16678 whole entry): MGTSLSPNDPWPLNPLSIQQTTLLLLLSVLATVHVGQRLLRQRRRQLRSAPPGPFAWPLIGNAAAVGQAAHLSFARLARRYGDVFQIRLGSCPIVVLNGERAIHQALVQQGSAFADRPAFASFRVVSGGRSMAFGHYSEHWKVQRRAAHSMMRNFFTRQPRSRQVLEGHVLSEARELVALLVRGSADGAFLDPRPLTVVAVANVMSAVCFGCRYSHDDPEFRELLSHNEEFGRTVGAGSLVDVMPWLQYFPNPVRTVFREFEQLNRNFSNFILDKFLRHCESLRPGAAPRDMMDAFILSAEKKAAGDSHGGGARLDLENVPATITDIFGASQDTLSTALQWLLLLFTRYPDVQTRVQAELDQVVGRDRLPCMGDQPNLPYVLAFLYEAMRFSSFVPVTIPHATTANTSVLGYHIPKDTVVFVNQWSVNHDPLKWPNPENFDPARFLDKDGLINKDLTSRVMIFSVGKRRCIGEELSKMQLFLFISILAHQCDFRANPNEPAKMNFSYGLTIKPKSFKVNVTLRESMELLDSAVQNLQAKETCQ

CYP1A1 [2] = biological target: T2, CYP1A1 (Homo sapiens, UniProt P04798); assay: Inhibition of recombinant human CYP1A1 at 3 uM incubated for 25 mins using 7-ethyl-O-resorufin substrate in presence of NADPH regenerating system by fluorescence based ethoxyresorufin-O-deethylase assay; assay type: ADME; settings: recombinant human CYP1A1, probe 7-ethyl-O-resorufin (7-ethoxyresorufin)
T2 sequence (P04798 whole entry): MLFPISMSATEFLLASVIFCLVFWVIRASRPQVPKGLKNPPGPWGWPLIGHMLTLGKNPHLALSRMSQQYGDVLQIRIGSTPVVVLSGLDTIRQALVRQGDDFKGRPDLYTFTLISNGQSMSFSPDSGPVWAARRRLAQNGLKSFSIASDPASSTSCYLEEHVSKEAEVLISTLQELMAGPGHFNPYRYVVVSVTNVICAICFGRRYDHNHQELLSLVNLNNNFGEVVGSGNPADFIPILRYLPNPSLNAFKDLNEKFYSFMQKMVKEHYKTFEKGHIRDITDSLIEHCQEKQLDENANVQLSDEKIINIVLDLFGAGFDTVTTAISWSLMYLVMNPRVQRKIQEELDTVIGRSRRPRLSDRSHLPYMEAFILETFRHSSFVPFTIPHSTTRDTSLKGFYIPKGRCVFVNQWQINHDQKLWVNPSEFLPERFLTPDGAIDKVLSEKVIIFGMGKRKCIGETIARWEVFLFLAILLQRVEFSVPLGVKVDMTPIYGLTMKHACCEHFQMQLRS

CYP1A1 [3] = biological target: T2, CYP1A1; assay: Inhibition of recombinant human CYP1A1 at 0.3 uM incubated for 25 mins using 7-ethyl-O-resorufin substrate in presence of NADPH regenerating system by fluorescence based ethoxyresorufin-O-deethylase assay; assay type: ADME; settings: recombinant human CYP1A1, probe 7-ethyl-O-resorufin (7-ethoxyresorufin)
CYP1B1 [4] = biological target: T1, CYP1B1; assay: Inhibition of recombinant human CYP1B1 at 3 uM incubated for 45 mins using 7-ethyl-O-resorufin substrate in presence of NADPH regenerating system by fluorescence based ethoxyresorufin-O-deethylase assay; settings: recombinant human CYP1B1, probe 7-ethyl-O-resorufin (7-ethoxyresorufin)

SMILES	inhibition at 0.75 h, 0.3 µM (CYP1B1 [1])	inhibition at 25 min, 3 µM (CYP1A1 [2])	inhibition at 25 min, 0.3 µM (CYP1A1 [3])	inhibition at 0.75 h, 3 µM (CYP1B1 [4])
C[C@]12CC[C@@H]3c4cc(-c5ccc(F)c(F)c5)c(O)cc4CC[C@H]3[C@@H]1CC[C@@H]2O	92%	47%	2%	100%
CSc1ccc2c(c1)CC[C@@H]1[C@@H]2CC[C@]2(C)C(=O)CC[C@@H]12	14%	–	–	34%
C[C@]12CC[C@@H]3c4ccc(S(C)(=O)=O)cc4CC[C@H]3[C@@H]1CCC2=O	7%	–	–	7%
C[C@]12CC[C@@H]3c4cc(-c5cccc(O)c5)c(O)cc4CC[C@H]3[C@@H]1CC[C@@H]2O	96%	57%	10%	100%
C[C@]12CC[C@@H]3c4cc(-c5ccccc5)c(O)cc4CC[C@H]3[C@@H]1CCC2=O	69%	16%	5%	101%
C[C@]12CC[C@@H]3c4ccc(S(C)(=O)=O)cc4CC[C@H]3[C@@H]1CC[C@@H]2O	0%	–	–	5%
COc1ccc(-c2cc3c(cc2O)CC[C@@H]2[C@@H]3CC[C@]3(C)C(=O)CC[C@@H]23)cc1	95%	18%	8%	103%
C[C@]12CC[C@@H]3c4cc(-c5cccnc5)c(O)cc4CC[C@H]3[C@@H]1CCC2=O	–	–	–	90%
C[C@]12CC[C@@H]3c4cc(-c5cccnc5)c(O)cc4CC[C@H]3[C@@H]1CC[C@@H]2O	–	77%	53%	100%
COc1ccc(-c2cc3c(cc2O)CC[C@@H]2[C@@H]3CC[C@]3(C)[C@@H](O)CC[C@@H]23)cc1	97%	51%	14%	100%
C[C@]12CC[C@@H]3c4cc(-c5cccc(O)c5)c(O)cc4CC[C@H]3[C@@H]1CCC2=O	92%	39%	10%	103%
C[C@]12CC[C@@H]3c4cc(-c5cccc(Cl)c5)c(O)cc4CC[C@H]3[C@@H]1CCC2=O	74%	11%	5%	100%
COc1cccc(-c2cc3c(cc2O)CC[C@@H]2[C@@H]3CC[C@]3(C)C(=O)CC[C@@H]23)c1	48%	–	–	81%
C[C@]12CC[C@@H]3c4cc(-c5cccc(Cl)c5)c(O)cc4CC[C@H]3[C@@H]1CC[C@@H]2O	91%	51%	16%	100%
C[C@]12CC[C@@H]3c4cc(-c5cccc(F)c5)c(O)cc4CC[C@H]3[C@@H]1CC[C@@H]2O	88%	48%	12%	101%
C[C@]12CC[C@@H]3c4ccc(SCc5cccnc5)cc4CC[C@H]3[C@@H]1CCC2=O	48%	36%	9%	87%

SMILES	inhibition at 0.75 h, 0.3 µM (CYP1B1 [1])	inhibition at 25 min, 3 µM (CYP1A1 [2])	inhibition at 25 min, 0.3 µM (CYP1A1 [3])	inhibition at 0.75 h, 3 µM (CYP1B1 [4])
C[C@]12CC[C@@H]3c4cc(-c5ccc(F)c(F)c5)c(O)cc4CC[C@H]3[C@@H]1CCC2=O	77%	15%	1%	100%
CSc1ccc2c(c1)CC[C@@H]1[C@@H]2CC[C@]2(C)[C@@H](O)CC[C@@H]12	5%	–	–	26%
C[C@]12CC[C@@H]3c4cc(-c5ccccc5)c(O)cc4CC[C@H]3[C@@H]1CC[C@@H]2O	82%	45%	9%	101%
COc1ccc(-c2cc3c(cc2OC)CC[C@@H]2[C@@H]3CC[C@@]3(C)[C@H]2CC[C@]3(C)O)cc1	8%	6%	2%	46%
COc1ccc(-c2cc3c(cc2OC)CC[C@@H]2[C@@H]3CC[C@]3(C)C(=O)CC[C@@H]23)cc1	38%	4%	1%	79%
C[C@]12CC[C@@H]3c4cc(-c5ccc(O)cc5)c(O)cc4CC[C@H]3[C@@H]1CCC2=O	19%	–	–	30%
C[C@]12CC[C@@H]3c4cc(-c5cccc(N)c5)c(O)cc4CC[C@H]3[C@@H]1CCC2=O	36%	–	–	55%
C[C@]12CC[C@@H]3c4cc(-c5cccc(F)c5)c(O)cc4CC[C@H]3[C@@H]1CCC2=O	67%	23%	3%	101%
COc1ccc(-c2cc3c(cc2OC)CC[C@@H]2[C@@H]3CC[C@]3(C)[C@@H](OC)CC[C@@H]23)cc1	11%	5%	1%	20%
C[C@]12CC[C@@H]3c4cc(-c5ccc(Cl)cc5)c(O)cc4CC[C@H]3[C@@H]1CCC2=O	79%	5%	9%	101%
C[C@]12CC[C@@H]3c4cc(-c5ccc(F)cc5)c(O)cc4CC[C@H]3[C@@H]1CCC2=O	71%	8%	2%	101%
C#C[C@]1(O)CC[C@H]2[C@@H]3CCc4cc(OC)c(-c5ccc(OC)cc5)cc4[C@H]3CC[C@@]21C	6%	9%	4%	55%
C[S+]([O-])c1ccc2c(c1)CC[C@@H]1[C@@H]2CC[C@]2(C)[C@@H](O)CC[C@@H]12 (stereo partly drawn)	10%	–	–	25%
C[S+]([O-])c1ccc2c(c1)CC[C@@H]1[C@@H]2CC[C@]2(C)C(=O)CC[C@@H]12 (stereo partly drawn)	16%	–	–	57%
C[C@]12CC[C@@H]3c4cc(-c5ccc(Cl)cc5)c(O)cc4CC[C@H]3[C@@H]1CC[C@@H]2O	96%	63%	12%	99%
C[C@]12CC[C@@H]3c4cc(-c5ccncc5)c(O)cc4CC[C@H]3[C@@H]1CCC2=O	–	–	–	55%
